In paper PMC7830758, “Revisiting the Rate-Limiting Step of the ANS–Protein Binding at the Protein Surface and Inside the Hydrophobic Cavity” (Molecules, 2021):

Columns and labels:
lysozyme = molecular target: T1, lysozyme (Gallus gallus, UniProt P00698); assay: ANS fluorescence titrated with protein, MCR-ALS scores, one-site fit; format: binding; settings: read-out: K (converted)
T1 construct: gene LYZ

[1] = molecular target: T2, bovine serum albumin (BSA) (Bos taurus, UniProt P02769); assay: as above; format: binding; settings: read-out: K (converted)
T2 construct: gene ALB
T2 sequence (P02769 25-607): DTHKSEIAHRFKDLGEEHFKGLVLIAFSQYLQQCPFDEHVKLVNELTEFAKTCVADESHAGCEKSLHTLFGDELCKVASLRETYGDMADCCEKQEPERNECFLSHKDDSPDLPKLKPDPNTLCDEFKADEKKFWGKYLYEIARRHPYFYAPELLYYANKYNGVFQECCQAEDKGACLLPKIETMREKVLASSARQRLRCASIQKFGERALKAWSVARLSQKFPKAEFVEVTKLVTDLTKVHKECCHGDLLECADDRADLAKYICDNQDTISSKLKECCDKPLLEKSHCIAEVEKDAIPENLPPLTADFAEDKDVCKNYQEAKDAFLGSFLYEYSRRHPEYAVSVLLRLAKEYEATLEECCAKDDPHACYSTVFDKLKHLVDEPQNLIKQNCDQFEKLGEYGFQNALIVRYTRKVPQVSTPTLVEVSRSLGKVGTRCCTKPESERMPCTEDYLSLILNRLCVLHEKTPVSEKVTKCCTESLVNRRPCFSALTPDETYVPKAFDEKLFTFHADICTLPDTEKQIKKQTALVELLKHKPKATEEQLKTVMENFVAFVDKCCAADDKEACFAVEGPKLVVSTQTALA

T1 sequence (P00698 19-147): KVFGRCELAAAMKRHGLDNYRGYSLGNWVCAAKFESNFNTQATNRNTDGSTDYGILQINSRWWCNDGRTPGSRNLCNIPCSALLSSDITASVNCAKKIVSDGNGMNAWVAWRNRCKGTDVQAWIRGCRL

O=S(=O)(O)c1cccc2cccc(Nc3ccccc3)c12 [8-Anilino-1-naphthalenesulfonic acid]
Kd (lysozyme): 172 µM
Kd [1]: 1.06 µM
